These are literature values, as cited in patent US7702465B2 (priority 2002, dated 2010).

Data set [1] deals with HLA A*0201 (Homo sapiens, UniProt P04439, /I218V/L300P/L318F/N151K/N90K/P208A/P217A/Q86G/Q94H/R138H/R169H/T345S). Particulars: binding to HLA A*0201; nonameric peptides from HPV E6 and E7; literature data of Rudolf et al. (2001).
For data set [2], the target named is HLA A*0201 (Homo sapiens, UniProt P04439, D140Y/D185E/D98H/E176V/E277Q/G131W/G231S/I119V/I121R/I166T/I218V/L300P/L318F/N151K/N90K/P208A/P217A/Q86G/Q94H/R138H/R169H/T345S). As to conditions: binding peptides = the 15 of 247 with IC50 3 to 943 nM (Rudolf et al. 2001).

Consider FKDLFVVYR, for which the IC50 on HLA A*0201 [1] is 500 nM.

Consider FAFKDLFVV, for which, at HLA A*0201 [1], the IC50 is 3 nM.

In the case of LFLNTLSFV, the “classification as binder to HLA A*0201” value with HLA A*0201 [2] is listed as “binding peptides”.

Regarding LYNLLIRCL, the “classification as binder to HLA A*0201” value on HLA A*0201 [2] was “binding peptides”.
